Test results: patent publication US12258360B2, “Compositions and methods for treatment of anticancer-drug resistant cancers” (THE GEORGE WASHINGTON UNIVERSITY, priority 2020, dated 2025)
“And” between values parts separate entries of the source, which are not always exact repeats. Equal entries are not always repeated.

Columns and labels:
SREBP target gene SCD-1 = test: RT-PCR detection of SCD-1 gene expression in AN3CA cells; assay type: cell-based, human; conditions: 10 μM
Experimental: • 1. Experimental reagent • 2. The experimental steps are as follows: • 2.1 AN3CA cell recovery and culture (10% serum 1% double antibody in MEM medium); • 2.2 passages (passage at a ratio of 1:2); • 2.3 Place 6 well plates when the cell status is good, 5×10^5Well, culture overnight; • 2.4 adding medicine: diluting the final concentration of the drug with a culture medium to 10 μM, 2 mL/well; • 2.5 adding medicine for 48 h, and then extracting RNA; • 2.5.1 removing the culture medium, adding 0.5 mL/hole Trizol to lyse the cells, repeatedly blowing and beating the cells by a pipette after 5 min, completely lysing the cells, transferring the cells into a 1.5 mL EP tube without RNase, and standing the tube for 5 min; • 2.5.2 adding 200 µl chloroform, shaking rapidly, mixing, standing for 10 min 12000 rpm/15 min; • 2.5.3 carefully taking out the supernatant, transferring the supernatant into an EP tube, adding isopropanol with the same volume, reversing, uniformly mixing, standing for 10 min, and centrifuging at 12000 rpm/10 min; • 2.5.4 removing the supernatant, adding 1 mL of 75% ethanol for washing, centrifuging at 8000 rpm/5 min once, carefully removing the supernatant, standing at room temperature for 10 min to volatilize the ethanol, and dissolving the precipitate with 40 μL of DEPC treated water when the precipitate becomes transparent; • 2.5.5 RNA concentration was measured and DEPC-treated water was diluted to 100 ng/μL • 2.6 reverse transcription: Kit Takara (PrimeScript RT reagent Kit (Perfect Real Time)

And-1 [1] = biological target: T1, And-1 (Homo sapiens, UniProt O75717); test: Western blot detection of And-1 protein expression in A549 cells; assay type: cell-based; design: endogenous in cells; host or cells: A549; conditions: A549 cell line, 5 μM, 24 hours
T1 sequence (O75717 1-1129): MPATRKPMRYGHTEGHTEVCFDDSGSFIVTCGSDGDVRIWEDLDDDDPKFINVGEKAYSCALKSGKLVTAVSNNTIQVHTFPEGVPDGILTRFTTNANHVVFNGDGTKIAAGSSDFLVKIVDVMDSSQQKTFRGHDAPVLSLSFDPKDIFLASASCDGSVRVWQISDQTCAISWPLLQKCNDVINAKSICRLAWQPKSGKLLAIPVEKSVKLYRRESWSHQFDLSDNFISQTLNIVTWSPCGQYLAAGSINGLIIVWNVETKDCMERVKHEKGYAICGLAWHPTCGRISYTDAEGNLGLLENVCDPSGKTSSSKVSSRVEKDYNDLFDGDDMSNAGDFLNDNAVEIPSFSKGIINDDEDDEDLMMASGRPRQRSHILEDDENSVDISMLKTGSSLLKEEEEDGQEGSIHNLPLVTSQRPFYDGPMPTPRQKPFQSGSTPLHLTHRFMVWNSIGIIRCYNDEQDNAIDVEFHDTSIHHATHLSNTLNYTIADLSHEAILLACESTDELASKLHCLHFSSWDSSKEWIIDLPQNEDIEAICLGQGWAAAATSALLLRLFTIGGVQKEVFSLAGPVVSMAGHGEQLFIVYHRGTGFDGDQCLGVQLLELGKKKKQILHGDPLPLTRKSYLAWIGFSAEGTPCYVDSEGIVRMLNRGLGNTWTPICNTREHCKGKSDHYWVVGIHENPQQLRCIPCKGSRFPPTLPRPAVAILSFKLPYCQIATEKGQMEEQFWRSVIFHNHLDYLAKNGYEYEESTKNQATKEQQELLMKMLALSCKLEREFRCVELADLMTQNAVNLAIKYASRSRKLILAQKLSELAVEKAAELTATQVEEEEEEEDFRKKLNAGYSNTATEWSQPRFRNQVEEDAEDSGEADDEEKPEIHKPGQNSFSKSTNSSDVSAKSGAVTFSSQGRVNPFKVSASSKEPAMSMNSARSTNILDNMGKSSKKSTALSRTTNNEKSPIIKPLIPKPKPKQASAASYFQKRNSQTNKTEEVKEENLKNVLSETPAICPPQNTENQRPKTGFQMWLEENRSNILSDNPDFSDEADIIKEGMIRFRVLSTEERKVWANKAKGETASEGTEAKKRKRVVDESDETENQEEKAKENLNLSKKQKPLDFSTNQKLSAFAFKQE
Experimental: Select the A549 cells in good growth condition and inoculate them in a 60 mm petri dish at a density of 500,000. After culturing in a constant temperature incubator at 37° C. and 5% CO2 for 24 hours, add different compounds of the same concentration (5 μM) and continue culturing for 24 hours before collecting Cells were subjected to Western blotting experiments to compare with untreated cells to detect the inhibitory effect of each compound on the expression of And-1 protein.

And-1 [2] = biological target: T1, And-1; test: inhibition of And-1 in IGROV1 CR cells; assay type: cell-based; design: endogenous in cells; host or cells: IGROV1 CR; conditions: inhibition of And-1, IGROV1 CR cells
And-1 [3] = biological target: T1, And-1; test: inhibition of And-1 in OV90 CR cells; assay type: cell-based; design: endogenous in cells; conditions: inhibition of And-1, OV90 CR cells

## OB1OCc2cc(/C=C/c3ccc(Cl)c(Cl)c3)ccc21 [III, (E)-5-(3,4-dichlorostyryl)benzo[c][1,2]oxaborol-1(3H)-ol]
SREBP target gene SCD-1; AN3CA cells, 48 h, DMSO = 1
  Relative mRNA expression of SCD-1: 0.64
SREBP target gene SCD-1; human endometrial cancer AN3CA cells
  inhibitory effect on Srebp: high inhibitory effect
And-1 [1]
  expression of And-1 protein (Western blot): significantly inhibit
And-1 [2]
  IC50: 7.8 µM and 7.83 µM
And-1 [3]
  IC50: 13.3 µM
